Laboratory results reported in patent US10816552B2 (The Governing Council of the University of Toronto, priority 2014, dated 2020).

Assays:
[1] = 1H NMR stability in d-DMSO under dry ambient atmosphere, 24 h; format: physicochemical; details: for degradation over 24 hours (1H NMR): 24 hr incubation
Description: FIGS. 2A-C show the results of ^1H NMR stability experiments for exemplary compounds 1-11. (A) Compounds 1, 2 and 7. (B) Compounds 3, 4, 5 and 6. (C) Compounds 8, 9, 10 and 11. The organotellurium compounds (˜150 μM) were dissolved in d-DMSO with 1,3,5-trioxane, the secondary internal standard. The compounds were kept in clear glass 20 mL vials. The vials were kept in a moisture free environment for 24 hours with continuous supply of ambient atmosphere dried using a series of bubblers containing phosphoric acid, potassium hydroxide and calcium sulfate. Aliquots were analyzed by ^1H NMR and the organotellurium signals and the d5-H-DMSO peaks were integrated. The ratio between the DMSO and the organotellurium protons at time 0 were taken and normalized to generate a degradation plot. Experimental error was calculated by generating triplicate integration data from each individual preliminary NMR data. This error takes into consideration of integration bias and instrument fluctuations.
The relative chemical stability of the methyl telluroethers (1-4) were quantified using ^1H NMR by integration of the CH3—Te signals with respect to a residual DMSO-d5 internal standard. Samples were prepared in a solution of DMSO-d6 and placed under a slow continuous stream of dry ambient atmosphere in a clear glass desiccator. This setup allowed the compound's stability to be monitored without interference from atmospheric water (FIG. 2).

Jurkat cells = experiment: Metabolic toxicity assay (WST-1) in Jurkat cells; format: cell-based; details: for LD50 / LD50 (metabolic toxicity): Jurkat cells, 24 hour incubation, WST-1
Description: FIGS. 7A, B and C show a) and b) the cell proliferation rate of HCT116 cells as a function of time in the presence of various concentrations of the exemplary compound, Telox-2 (confluency analysis); and c) the metabolic toxicity of the exemplary compound, Telox-2, in Jurkat cells as measured by reduction of WST-1. Cells were incubated with Telox-2 for 24 hours prior to a 30 minute exposure to WST-1.
A 96 well clear fluorometer plate was loaded with 200 μL of Jurkat cells at a culture density of 1×10^6 cells per mL. To each well was added an appropriate amount of a stock solution of Telox/Telox2 in sterile DMSO to reach a desired concentration of Telox/Telox2 (1-1000 micromole). The concentration of DMSO was 1% in all wells. Cells were allowed to incubate for 24 h at 37° C. under normal atmosphere, after which 20 μL of a commercially available solution of WST-1 in PBS (Roche Diagnostics, product #05015944001) was added to each well (gentle pipetting evenly distributed the reagent throughout the well). Cells were allowed to incubate for a further 0.5 h at 37° C. under normal atmosphere, followed by subsequent measurement of the absorbance of each well at 450 nm using a TECAN Safire 2 plate reader. Data was background corrected vs. wells that contained cell growth media (without cells), an appropriate concentration of Telox2, a final concentration of DMSO=1%, and WST-1. Background correction wells were incubated in the same manner as described for cell-positive wells.
To investigate the organotellurium compounds of study as potential probe moieties for MC, the metabolic toxicity of the compounds was evaluated. Organotellurium compounds are often described as toxic, with aryl telluroethers showing cellular toxicity below 100 μM across a range of cell lines under different assay conditions.^9-11,38,39 The toxicity of compounds 8-11 was investigated in a commonly used Jurkat cell line after a 24 hour incubation using the metabolic probe WST-1 (Roche Diagnostics, Laval, Quebec) as per manufacturer's instructions. As compounds 8, 9 and 10 are expected to show degradation over the time frame of the toxicity assay, based on the NMR stability studies, these experiments show the relative toxicity of the compounds and their resulting degradation products (Table 2). […] The LD50 values of the exemplary organotellurium compounds of the present application provide promise for their use as activity based MC probes since the general MC experiment can be achieved at concentrations of ˜100 μM.^5

Solubility observations = format: physicochemical
[2] = NMR degradation in 50/50 d-DMSO/PBS buffer, air and ambient light; format: physicochemical; details: air, ambient lighting, room temperature
Source text: The ^19F NMR of compound 10 and ^1H NMR of compound 11 were taken at shown time points. Compound 10 used trifluoroacetic acid as the internal standard and compound 11 used d5-DMSO.
To further validate these compounds as potential MC mass tags, the degradation was also studied in a buffered aqueous solution by dissolving the compounds in a 50/50 solution of d-DMSO/PBS buffer. The compounds were kept in an environment exposed to air and ambient lighting at room temperature. ^19F NMR was used to study compound 10 using a trifluoroacetic acid internal standard while ^1H NMR was used to study the degradation compound 11 using the d5-DMSO internal standard. […] However, under the same conditions the tellurophene 11 was stable.

HCT116 cells = experiment: Mass cytometry hypoxia labelling (130Te signal); format: cell-based
Source text: FIGS. 4A-E show a schematic representation and density maps and plots. FIG. 4A is a schematic representation of Telox/Telox2 cell labelling for analysis via mass cytometry on a second-generation CyTOF instrument. FIG. 4b) is a density map of signal event length vs. ^130Te signal (arbitrary units). FIG. 4c) is a density plot output from the top-right gate in b) of ^193Ir signal (arbitrary units) vs. ^103Rh signal (arbitrary units). More than 93% of detected events fall in the square gate. FIG. 4d) is a density plot output from the bottom-left gate in b) of ^193Ir signal (arbitrary units) vs. ^103Rh signal (arbitrary units). More than 89% of detected events fall in the square gate. FIG. 4e) is a population histograms of cell ^130Te content (arbitrary units). Oxygen concentrations are listed as numerical percentages, P=Pimonidazole (100 μM). Blue and red histograms are Pimonidazole-negative controls. Orange and green histograms are Pimonidazole- positive competition experiments. Note: warmer colors in density plots indicate higher cell population density.
FIGS. 8A and B show a) the absolute ^130Te signal as a function of concentration as determined by mass cytometry analysis of HCT116 cells incubated with the exemplary compound, Telox-2, for 3 hours in either near-anoxic (˜0% O2), hypoxic (˜1% O2) or normoxic (21% O2) atmosphere; and b) the signal-to-noise (fold-change) representation of the data presented in part a.
FIGS. 9A-D show a) Absolute ^130Te signal as a function of time as determined by mass cytometry analysis of HCT116 cells incubated with 10 μM of the exemplary compound,Telox-2 (constant exposure), in either near-anoxic (˜0% O2), hypoxic (˜1% O2) or normoxic (21% O2) atmosphere; b) the signal-to-noise (fold-change) representation of the data presented in part a; and c) the absolute ^130Te signal as a function of time as determined by mass cytometry analysis of HCT116 cells incubated with 10 μM Telox-2 for 3 hours followed by replacement of Telox-2-containing media with fresh media in either near-anoxic (˜0% O2), hypoxic (˜1% O2) or normoxic (21% O2) atmosphere; and d) the signal-to-noise (fold-change) representation of the data presented in part c.
HCT116 (500,000) cells were seeded in 60 mm plastic petri dishes (Corning Inc., NY) and incubated for 24 h at 37° C., 21% O2/5% CO2. The cells were transferred to hypoxia chambers (H35/H85 hypoxia workstation, Don Whitley Scientific) maintained at 1%/0.2% or <0.02% O2 for 3 h. Hypoxia experiments (<0.02% O2) were performed by seeding the cells in 60 mm glass plates (Corning Inc., NY).
HCT 116 cells (see sections i and ii) were incubated in media containing Telox or Telox2 (100 μM, added as a neat solution in sterile DMSO; final [DMSO]=0.1%) for 3 hours under atmosphere containing an appropriate concentration of O2. Following incubation, the media was removed, cells were washed with sterile PBS, and then separated from the incubation plate via trypsinization (37° C., 10 min) and gentle scraping. The cell suspension was pelleted and resuspended in PBS containing β-ME (1.0 mL, 100 mM). Cells were pelleted, resuspended in PBS (900 μL, no β-ME), and fixed with formaldehyde (100 μL, 37% solution) for 25 minutes. Following fixation, cells were pelleted, resuspended in PBS containing β-ME (1.0 mL, 100 mM), and pelleted once again. Cells were then resuspended in PBS ([…], no β-ME) and incubated with either the Ir-containing nucleic acid intercalator (hypoxic cells) or the Rh containing nucleic acid intercalator (normoxic cells) (10 μL, 100 μM solution in sterile PBS) for 20 minutes. Cells were then pelleted and resuspended in PBS (1.0 mL, no β-ME) twice. Cell pellets were then resuspended in PBS containing ^151/153EU beads (1/10 dilution of CyTOF® calibration beads, DVS Sciences, 1.0-2.5 mL depending on pellet size). The two cells samples were then combined (250 μL of each) and 250 μL of the resultant sample was injected onto a second-generation CyTOF® instrument for MC analysis. […]

[3] = Stability of the Telox telluroether (summary statement); format: physicochemical

In the case of `C[Te]CCCO` [Compound 2, 3-methyltellanyl-1-propanol], the “degradation over 24 hours (1H NMR)” value [1] is reported as “approximately 75%”.
With `COC(=O)CC[Te]C` [Compound 3, methyl 3-methyltellanyl-propionate] the “degradation over 24 hours (1H NMR)” value [1] was about 85%.
In the case of `COC(=O)CCC[Te]C` [Compound 4, methyl 4-methyltellanyl-butanoate], the “degradation over 24 hours (1H NMR)” value [1] is reported as “approximately 15%”.
For `COC(=O)CCC[Te]C(F)(F)F` [Compound 5, methyl 4-((trifluoromethyl)tellanyl)butanoate], the “degradation over 24 hr incubation (1H NMR), in words” value (shortened to “degradation over 24 hr incubation”) [1] was “no degradation was observed”.
With `O=C(O)CCc1ccc[te]1` [Compound 6] the “degradation over 24 hr incubation” value [1] was “degraded insignificantly”.
With `OCCc1ccc[te]1` [Compound 7, 2-(tellurophen-2-yl)ethan-ol] the “degradation over 24 hr incubation” value [1] was “degraded insignificantly”.
For `C[Te]CCCOC(=O)NCc1ccccc1` [Compound 8], the LD50 (Jurkat cells) was 610 ± 290 µM, the “LD50 (metabolic toxicity)” value (Jurkat cells) was 610 µM and the “solubility, in words” value (Solubility observations) was “lack of solubility”.
For `C[Te]CCCC(=O)NCc1ccccc1` [Compound 9, N-benzyl-4-(methyltellanyl)butanamide], the LD50 (Jurkat cells) was 180 ± 60 µM.
For `O=C(CCC[Te]C(F)(F)F)NCc1ccccc1` [Compound 10, N-benzyl-4-((trifluoromethyl)tellanyl)butamide], the “degradation over 24 hr incubation” value [1] was “stable”, the “degradation after 24 hours in d-DMSO/PBS” value ([2]; 19F NMR) was 60% and the LD50 (Jurkat cells) was 130 ± 20 µM.
In the case of `O=C(CCc1ccc[te]1)NCc1ccccc1` [Compound 11, N-benzyl-3-(tellurophen-2-yl)propanamide], the “degradation over 24 hr incubation” value [1] is reported as “stable”, the “stability in d-DMSO/PBS, in words” value ([2]; 1H NMR, 24 hours) is reported as “stable” and the LD50 (Jurkat cells) is reported as 280 ± 30 µM. For the same compound, the “LD50 (metabolic toxicity)” value (Jurkat cells) was 280 µM.
In the case of `C[Te]CCCOC(=O)NCCNC(=O)Cn1ccnc1[N+](=O)[O-]` [Telox], the “metabolic LD50, in words” value (Jurkat cells; Telox, summary statement) is reported as “close to the required assay concentration”, the “detected events in the square gate, top-right (130Te) gate, 193Ir vs 103Rh” value (HCT116 cells; FIG. 4c) is reported as “More than 93%” and the “detected events in the square gate, bottom-left (130Te) gate, 193Ir vs 103Rh” value (HCT116 cells; FIG. 4d) is reported as “More than 89%”. The “stability of telluroether functionality, in words” value [3] was “moderate stability”.
